Test results reported in patent US20220296535A1, “Antibacterial Dosage Regime Using Cannabinoids” (Botanix Pharmaceuticals Limited, priority 2019, published 2022).
≈ marks a conversion by molar mass, not a printed value. Read-outs that look alike come from different tables or passages of the source.

Columns and labels:
[1] = system: S. aureus MRSA (106 strains); test: MIC50/MIC90 micro-broth dilution, MRSA strains; format: cell-based, Staphylococcus aureus; settings: for Staphylococcus aureus MRSA MIC distribution, number of strains: Table 19
[2] = system: C. granulosum ATCC 25564; test: Anaerobic MIC micro-broth dilution; format: cell-based, Cutibacterium granulosum; settings: C. granulosum ATCC 25564, anaerobic chamber, BHI, 48 h
[3] = system: Staphylococcus aureus MRSA ATCC 43300 biofilm; test: Biofilm minimum inhibitory concentration (Biofilm MIC), crystal violet OD590; format: cell-based
Experimental: The collaborator supplied sample as dry material. A stock solution at 10 mg/mL in neat DMSO (11.2 mg in 1.12 mL of DMSO) was prepared. The highest concentration tested in the assay was 128 μg/mL and 2% DMSO as a final concentration using 1/20 dilution to achieve these concentrations.
Bacteria (Staphylococcus aureus, ATCC 43300; MRSA) was cultured on Tryptic Soy Broth (TSB, BD, Cat. No. 211825) at 37° C. overnight, then it was diluted 1:100 in fresh TSB supplemented with 5% glucose. 100 μL were added across the 96-well of polystyrene (PS) (Corning; Cat. No. 3370) plate, leaving row H as media Control. Plates were incubated at 37° C. for 48 h to generate the biofilm. The plates were prepared in duplicate.
The antibiotic controls and CBD were serially diluted in TSB with 5% glucose two-fold across the wells of polystyrene (PS) 96-well plates (Corning; Cat. No. 3370), plated in duplicate. All plates had flat bottom wells and were covered with low-evaporation lids.
48 h after incubation, bacteria plates were carefully washed three times with 200 μL/well of saline solution (0.9% NaCl, Baxter Healthcare; Cat. No. AHF7124) using manual pipette to remove the planktonic cells but leave the biofilm adhered to the plate wells. Then, 100 μL of diluted controls and CBD were transferred into the washed plates containing the biofilm. Then, these plates were incubated at 37° C. for 24 h.
Next day, plates were washed three times with saline solution, then fixed with 100 μL/well of 99% methanol for 15 minutes. Once the biofilm was fixed, 100 μL/well 0.1% Crystal Violet Stain (Sigma; Cat No. C0775-25G) was added for 20 minutes and used as indicator of biofilm formation, followed by three times washing and dry well. To dissolve the crystal violet, 150 μL/well of methanol was added to allow for biofilm MIC analysis.
The biofilm formation was determined by optical density read at 590 nm (OD590). The percentage of biofilm formation was evaluated comparing the average, standard deviation and percentage of confidence of the media control (Row H) against the rest of the plate.
Analysis was performed using Microsoft Excel.

[4] = system: Staphylococcus aureus ATCC 43300 MRSA; test: Antibacterial time kill assay; format: cell-based; settings: for MIC: Staphylococcus aureus
Experimental: The time-kill method is based on CLSI guideline M26-A (NCCLS, 1999).
The collaborator supplied sample as dry material. A stock solution was prepared at 10 mg/mL in neat DMSO (11.2 mg in 1.12 mL of DMSO). The highest concentration tested in the assay was 64 μg/mL and 2% DMSO as a final concentration using 1/20 dilution to achieve these concentrations.
Time kill plates: CBD was plate across all the rows and serially diluted in Cation-adjusted Mueller Hinton Broth (CaMHB; BD, Cat. No. 212322) two-fold across the wells of polystyrene (PS) 96-well plates (Corning; Cat. No. 3370), plated in duplicate. Each row were taken as a time point, where row A, 0 h; row B, 1 h; row C, 2 h; row D, 3 h; row E, 4 h; row F, 6 h and row G, 24 h.
Also, control plates were made. CBD and standard antibiotics were serially diluted in Cation-adjusted Mueller Hinton Broth (CaMHB; BD, Cat. No. 212322) two-fold across the wells of polystyrene (PS) 96-well plates (Corning; Cat. No. 3370), plated in duplicate.
The tested bacteria was Staphylococcus aureus ATCC 43300 MRSA (ID GP_020:02).
Charcoal plate PS 96-well plates: 50 μL of sterile activated charcoal suspension (25 mg/ml) were added into row A. 90 μL of 0.9% sterile saline were added to subsequent rows.
Bacteria (Table 2.6) was cultured in CaMHB at 37° C. overnight, then diluted 40-fold and incubated at 37° C. for a further 2-3 h. The resultant mid-log phase cultures were diluted in CaMHB and added to each well of the control and time kill 96-well plates to give a final cell density of 5×10^5 CFU/mL, and a final compound concentration range of 0.03-64 μg/mL. The plates were covered and incubated at 37° C. for 24 h.
At selected time-points (0, 1, 2, 3, 4, 6 and 24 h), 50 μL of culture per-well was transferred from the time kill plate into the first row of charcoal plate (containing the charcoal suspension) to neutralise the compound. After mixing well, 10 μL were transferred from row A to row B to give a 1:10 dilution, this step was repeated until 1:10'000 (row E). […]
MICs and the time kill results were determined visually at 24 hr incubation. […]

[5] = system: 132 strains of Staphylococcus aureus (106 MRSA and 26 MSSA strains); test: MIC50/MIC90 micro-broth dilution, all strains
[6] = system: P. acnes ATCC 6919; test: Anaerobic MIC micro-broth dilution; format: cell-based, Cutibacterium acnes (formerly Propionibacterium acnes); settings: P. acnes ATCC 6919, anaerobic chamber, BHI, 48 h
[7] = listed as Cannabidiol (Batch 2)

Compound: C=C(C)C1CCC(C)=CC1c1c(O)cc(CCCCC)cc1O (stereo not shown) [Cannabidiol, 2-[3-methyl-6-(1-methylethenyl)-2-cyclohexen-1-yl]-5-pentyl-1,3-benzenediol]
- MIC50 ([1]; Staphylococcus aureus, S. aureus MRSA, read-out: MIC 50): 2 µg/mL (≈ 6.36 µM)
- MIC90 ([1]; Staphylococcus aureus, S. aureus MRSA, read-out: MIC 90): 4 µg/mL (≈ 12.7 µM)
- Staphylococcus aureus MRSA MIC distribution, number of strains ([1]; MIC 0.015): 0
- Staphylococcus aureus MRSA MIC distribution, number of strains ([1]; MIC 0.03): 0
- Staphylococcus aureus MRSA MIC distribution, number of strains ([1]; MIC 0.06): 0
- Staphylococcus aureus MRSA MIC distribution, number of strains ([1]; MIC 0.5): 0
- Staphylococcus aureus MRSA MIC distribution, number of strains ([1]; MIC 1): 4
- Staphylococcus aureus MRSA MIC distribution, number of strains ([1]; MIC 2): 82
- Staphylococcus aureus MRSA MIC distribution, number of strains ([1]; MIC 4): 18
- Staphylococcus aureus MRSA MIC distribution, number of strains ([1]; MIC 8): 1
- Staphylococcus aureus MRSA MIC distribution, number of strains ([1]; MIC 16): 0
- Staphylococcus aureus MRSA MIC distribution, number of strains ([1]; MIC 32): 0
- MIC [2, 7]: 4/2
- MIC ([2]; listed as Cannabidiol (CBD)): active
- biofilm MIC [3]: 1 to 2 µg/mL
- biofilm MIC relative to standard vegetative cell MIC [3]: approximately four-fold
- inhibition of 48 h biofilm formation ([3]; at 2 and 4 μg/mL): up to 75%
- Biofilm MIC (TSB + 5% Gluc) 07/112/18 ([3]; first biological replicate, two technical replicates, ≥70% inhibition OD590): 4 µg/mL
- Biofilm MIC (TSB + 5% Gluc) 14/112/18 ([3]; second biological replicate, two technical replicates, ≥70% inhibition OD590): 2 µg/mL
- MIC ([4]; CaMHB, 24 hr, read-out: CBD control MIC of the day): 2 µg/mL
- MIC ([4]; read-out: previous MIC data): 1 to 2 µg/mL (≈ 3.18 to 6.36 µM)
- treatment time after which bactericidal ([4]; concentrations over or equal to the MIC value): 3 h
- Staphylococcus aureus spp. MIC distribution, number of strains ([5]; MIC 0.015 μg/mL): 0
- Staphylococcus aureus spp. MIC distribution, number of strains ([5]; MIC 0.03 μg/mL): 0
- Staphylococcus aureus spp. MIC distribution, number of strains ([5]; MIC 0.06 μg/mL): 0
- Staphylococcus aureus spp. MIC distribution, number of strains ([5]; MIC 0.5 μg/mL): 0
- Staphylococcus aureus spp. MIC distribution, number of strains ([5]; MIC 1 μg/mL): 6
- Staphylococcus aureus spp. MIC distribution, number of strains ([5]; MIC 2 μg/mL): 106
- Staphylococcus aureus spp. MIC distribution, number of strains ([5]; MIC 4 μg/mL): 18
- Staphylococcus aureus spp. MIC distribution, number of strains ([5]; MIC 8 μg/mL): 1
- Staphylococcus aureus spp. MIC distribution, number of strains ([5]; MIC 32 μg/mL): 0
- MIC range ([5]; S. aureus spp. ALL): 0.25 to 8 µg/mL
- MIC50 ([5]; Staphylococcus aureus): 2 µg/mL (≈ 6.36 µM)
- MIC90 ([5]; Staphylococcus aureus): 4 µg/mL (≈ 12.7 µM)
- MIC ([5]; Staphylococcus aureus, MRSA|MSSA, read-out: MIC across the 132 strains tested): 2 to 4 µg/mL (≈ 6.36 to 12.7 µM)
- MIC [6, 7]: 2/1
- MIC ([6]; listed as Cannabidiol (CBD)): active
